# Results taken from patent publication US9926299B2, “Inhibitors of bruton's tyrosine kinase” (Centaurus BioPharma Co., Ltd., priority 2012, dated 2018).
# Key:
# Ramos cells = assay: BCR-induced calcium flux fluorescence-based assay in Ramos cells; details: Ramos cells stimulated with goat anti-human IgM antibody; read-out: Ramos Cell Ca Flux IC50
# Method: Calcium flux fluorescence-based assays were performed using Fluo-4 Direct™ Calcium Assay Kits (purchased from Invitrogen) in a FlexStation III (purchased from Molecular Devices) according to manufacturer instructions. In brief, actively growing Romas cells in RPM1-1640 medium (purchased from Invitrogen) supplemented with 10% FBS (purchased from Hyclone) were washed and re-plated in low serum medium at approximately 1×10^5 cells per 45 μL per well in a 96-well plate (purchased from Corning), then added 45 μL of dye (purchased from Invitrogen) and incubated at 37 degree for 1 hour. Compounds to be assayed were dissolved and 3-fold serially diluted in DMSO and then diluted by 100 times in low serum medium. Then 10 μL of the diluted mixture were added to the above 96-well plate (final DMSO concentration was 0.1%) and incubated at 37 degree in 5% CO2 incubator for 0.5 hour. The compound-treated cells were stimulated with a goat anti-human IgM antibody (10 μg/ml; purchased from SouthernBiotech) and read in the FlexStation III using a λEx=494 nM and […] for 90 seconds. The relative fluorescence unit (RFU) and the IC50 were recorded and analyzed using a GraphPad Prism 5 (GraphPad Software).
# BTK kinase = BTK kinase (Homo sapiens (Human), UniProt Q06187); assay: Btk kinase enzymatic assay (HTRF); format: biochemical; details: ATP at Km
# Chain of BTK kinase (Q06187 whole entry): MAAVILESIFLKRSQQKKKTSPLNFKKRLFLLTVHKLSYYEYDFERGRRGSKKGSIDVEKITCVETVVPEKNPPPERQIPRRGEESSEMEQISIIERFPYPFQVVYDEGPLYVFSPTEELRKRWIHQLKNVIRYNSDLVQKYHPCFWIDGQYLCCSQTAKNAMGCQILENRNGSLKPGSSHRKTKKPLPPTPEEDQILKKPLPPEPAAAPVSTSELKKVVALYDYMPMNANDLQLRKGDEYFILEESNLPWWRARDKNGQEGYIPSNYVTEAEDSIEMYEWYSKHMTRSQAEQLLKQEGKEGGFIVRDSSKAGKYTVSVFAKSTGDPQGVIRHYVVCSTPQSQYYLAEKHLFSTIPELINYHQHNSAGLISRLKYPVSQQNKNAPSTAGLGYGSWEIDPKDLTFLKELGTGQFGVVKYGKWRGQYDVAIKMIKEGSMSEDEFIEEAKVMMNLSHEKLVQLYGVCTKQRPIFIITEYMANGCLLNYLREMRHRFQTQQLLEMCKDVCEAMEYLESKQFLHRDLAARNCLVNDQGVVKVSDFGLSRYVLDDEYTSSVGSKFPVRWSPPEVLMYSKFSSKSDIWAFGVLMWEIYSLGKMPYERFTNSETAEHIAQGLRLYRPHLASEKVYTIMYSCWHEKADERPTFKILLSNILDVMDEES
# Method: Btk kinase activity was determined using a Homogeneous Time-Resolved Fluorescence (HTRF) methodology (Cisbio). […] The mixture was centrifuged and incubated for 5 min. […] For each compound, enzyme activity was measured at various concentrations of compound, and IC50s were obtained by GraFit Software 6.0 (Erithacus Software).
SMILES,IC50 (Ramos cells) [nM],IC50 (BTK kinase) [nM]
"C=CC(=O)N1CC[C@@H](n2nc(-c3ccc(Oc4ccc(C)c([N+](=O)[O-])c4)cc3)c(C(N)=O)c2N)C1 [Example 48, (R)-1-(1-acryloylpyrrolidin-3-yl)-5-amino-3-(4-(4-methyl-3-nitrophenoxy)phenyl)-1H-pyrazole-4-carboxamide]",< 100,< 100
"C=CC(=O)N1CC[C@@H](n2nc(-c3ccc(Oc4cccc([N+](=O)[O-])c4)c(C)c3)c(C(N)=O)c2N)C1 [Example 49, (R)-1-(1-acryloylpyrrolidin-3-yl)-5-amino-3-(3-methyl-4-(3-nitrophenoxy)phenyl)-1H-pyrazole-4-carboxamide]",< 100,< 100
